Structures are written as SMILES.

One data set in a line: in vitro. As to conditions: human, CAR-T cells.
Data set [1] relates to phospho-STAT panel (pSTAT3/4/5), CD3+ T cells. The data set can be described thus: phospho-STAT induction by IL-6, MesoScale Discovery phospho-STAT panel. The following applies: CD3+ T cells; for pSTAT3: MSD signal (No stim. 689, IL-6 alone 33641); for pSTAT4: MSD signal (No stim. 1964, IL-6 alone 15405); for pSTAT5: MSD signal (No stim. 9210, IL-6 alone 17743). In kind it is cell-based, human. Here is the method: CD19 CAR-T, PBMC or CD3+ T cells (AllCells) were thawed and rested 0/N at 37° C. in R10 media. Cells were seeded at 700,000 cells/well and were either untreated or treated with 100 ng/ml IL6+drug at indicated concentrations for 20 minutes at 37° C. The cells were then washed with cold PBS and followed by 60 μl of Tris lysis buffer (provided by MSD) for 30 minutes on ice. Lysates were collected by spin down for 10 minutes at >10,000 rpm. 25 μl/well per condition was used for MesoScale Discovery (MSD) assay using the phospho-STAT panel (pSTAT3/4/5) from MesoScale Discovery following the manufacturer's protocol. pSTAT panel plates were blocked with 150 μl of blocker A solution for 1 hr at RT with shaking. Plates were washed three times with 1× Tris wash buffer. 25 μl of lysate samples were added per well, incubated 2 hr at room temperature or at 4° C. overnight. Plates were washed 3 times with 1× tris wash buffer and then 25 μl of detection antibody solution were added to each well and incubated for 1 hr at room temperature with shaking. Plates were washed and 1× read buffer added to each well and plates were read on the MSD instrument.

The mark [2] stands for this setting: 100 ng/ml IL-6 + drug 10 uM, 20 min.

In the data set “in vitro”, `C[C@@H]1C[C@H]2[C@@H]3CCC4=CC(=O)C=C[C@]4(C)[C@@]3(F)[C@@H](O)C[C@]2(C)[C@@]1(O)C(=O)CO` [dexamethasone] had a viability at 0 day, 50 nM of 75%; a viability at 0 day, 100 nM of 75%; a viability at 4 day, 50 nM of 65.9%; a viability at 4 day, 100 nM of 52.8%. Further, in “in vitro”, the viability at 8 day, 50 nM was found to be 53.8%; the viability at 8 day, 100 nM worked out at 56.6%; the viability at 12 day, 50 nM stood at 67.8%; the viability at 12 day, 100 nM turned out to be 56.5%. Moreover, in data set [1] (setting [2]), the pSTAT3 was 25688, the pSTAT4 was 11588 and the pSTAT5 is 14850. Also, in data set [1] (IL-6 + drug 0.125 uM), the pSTAT3 came out at 26776, the pSTAT4 came to 14052 and the pSTAT5 turned out to be 16019. In addition, in data set [1] (IL-6 + drug 0.5 uM), the pSTAT3 was 28004, the pSTAT4 stood at 15286 and the pSTAT5 was 18936. In data set [1] (IL-6 + drug 1 uM), the pSTAT3 is listed as 27312, the pSTAT4 was found to be 15357 and the pSTAT5 turned out to be 18209. Besides, in data set [1] (IL-6 + drug 5 uM), the pSTAT3 came to 24869, the pSTAT4 is 11925 and the pSTAT5 came to 15761.

Values taken from US12252701B2, “Chimeric antigen receptor T cell therapy” (KITE PHARMA, INC., priority 2020, dated 2025).
